Some test systems named below: SNB-19 CNS; PC-3 prostate; HT29 colon; SK-MEL-28 melanoma; RPMI-8226 leukemia; TK-10 renal; HCT-15 colon; NCI/ADR-RES ovarian; CAKI-1 renal; HCT-116 colon.
What all share (test): NCI anticancer screen, dose series, 48 h

SMILES strings stand for the structures.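 Where inhibition never reached the appropriate level, the endpoint shown equals the highest concentration tested. Otherwise, values were interpolated linearly from a five-concentration, 48-hour dose response in 96-well plates. Here, GI50 denotes the concentration required for 50% inhibition of growth. TGI denotes the concentration required for complete inhibition of growth.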 Where only a bound is given, the exact number is not on record here.

In the case of `Cc1cc(NC(=O)C2c3ccccc3C(=O)N(CC(C)C)C2c2cccs2)no1` (stereo unspecified), the GI50 was 46.2 µM with SNB-19 CNS; 34.8 µM in the test on PC-3 prostate; 69.5 µM in the test with HT29 colon; above 100 µM in the test with SK-MEL-28 melanoma; 45.5 µM with RPMI-8226 leukemia; above 100 µM in the test on TK-10 renal. Also, the GI50 in the test on HCT-15 colon was 70.6 µM; in the test with NCI/ADR-RES ovarian, 90.2 µM; in the test with CAKI-1 renal it was 25.6 µM; in the test on HCT-116 colon, 49.1 µM. For the same compound, the TGI in the test on SNB-19 CNS, in the test with PC-3 prostate, in the test on HT29 colon, with SK-MEL-28 melanoma, in the test on RPMI-8226 leukemia and in the test with TK-10 renal was above 100 µM each time. The TGI in the test on HCT-15 colon, with NCI/ADR-RES ovarian, with CAKI-1 renal and in the test on HCT-116 colon was above 100 µM each time.

Consider `CC(=O)c1ccc(Nc2cc(-n3ccnc3)nc3ccccc23)cc1`, for which the GI50 is above 100 µM with SNB-19 CNS; 20.5 µM in the test on PC-3 prostate; 60.7 µM with HT29 colon; 29.8 µM in the test on SK-MEL-28 melanoma; 3.24 µM with RPMI-8226 leukemia; 15.6 µM with TK-10 renal. Besides, the GI50 was 34.2 µM with HCT-15 colon, above 100 µM with NCI/ADR-RES ovarian, 1.71 µM with CAKI-1 renal and 30.5 µM with HCT-116 colon. The TGI with SNB-19 CNS was above 100 µM; with PC-3 prostate, above 100 µM; in the test on HT29 colon it was above 100 µM; in the test on SK-MEL-28 melanoma, above 100 µM; with RPMI-8226 leukemia, 9.84 µM; in the test on TK-10 renal, 63 µM. For the same compound, the TGI was above 100 µM in the test on HCT-15 colon, above 100 µM in the test with NCI/ADR-RES ovarian, 7.57 µM in the test on CAKI-1 renal and above 100 µM in the test with HCT-116 colon.

In the case of `CCOC(=O)c1cnc(SCc2ccc(Cl)c(Cl)c2)nc1N1CC1`, the GI50 was 6.93 µM with SNB-19 CNS; 2.74 µM in the test on PC-3 prostate; 2.7 µM with HT29 colon; 5.88 µM in the test with SK-MEL-28 melanoma; 2.54 µM in the test with RPMI-8226 leukemia; 3.87 µM in the test on TK-10 renal. In addition, the GI50 with HCT-15 colon was 1.31 µM; in the test on NCI/ADR-RES ovarian it was 2.91 µM; in the test on CAKI-1 renal, 2.08 µM; in the test with HCT-116 colon, 0.9 µM. Moreover, the TGI was determined as 23.8 µM with SNB-19 CNS; 15.2 µM in the test with PC-3 prostate; 12.2 µM with HT29 colon; 19.9 µM with SK-MEL-28 melanoma; 9.64 µM with RPMI-8226 leukemia; 15.2 µM in the test on TK-10 renal. Also, the TGI was found to be 14.4 µM with HCT-15 colon, 8.72 µM with NCI/ADR-RES ovarian, 6.98 µM in the test with CAKI-1 renal and 10.9 µM with HCT-116 colon.

With `COc1ccc(N(C)c2nc(C)nc3ccccc23)cc1`, the GI50 in the test on SNB-19 CNS is below 0.01 µM; in the test on PC-3 prostate, below 0.01 µM; with HT29 colon, below 0.01 µM; with SK-MEL-28 melanoma, 19.3 µM; in the test with RPMI-8226 leukemia, below 0.01 µM; in the test on HCT-15 colon, below 0.01 µM. Further, the GI50 with NCI/ADR-RES ovarian, in the test with CAKI-1 renal and in the test with HCT-116 colon was below 0.01 µM in each case. Also, the TGI with SNB-19 CNS is above 100 µM; in the test on PC-3 prostate it was 36.8 µM; in the test on SK-MEL-28 melanoma it was above 100 µM; in the test with RPMI-8226 leukemia, 18 µM; with TK-10 renal it was above 47.5 µM; with HCT-15 colon, above 100 µM. Besides, the values for the TGI with CAKI-1 renal and with HCT-116 colon were 46.4 µM and above 36 µM, respectively.

On to `C[C@H]1[C@H](OC(=O)CCC(=O)O)O[C@@H]2O[C@]3(C)CC[C@H]4[C@H](C)CC[C@@H]1[C@@]24OO3`, for which the GI50 with SNB-19 CNS was 1.62 µM; in the test on PC-3 prostate, 0.0886 µM; with HT29 colon, 0.627 µM; in the test with SK-MEL-28 melanoma, 4.27 µM; with RPMI-8226 leukemia it was 0.0948 µM; in the test with HCT-15 colon it was 0.107 µM. For the same compound, the figures for the GI50 with NCI/ADR-RES ovarian, in the test on CAKI-1 renal and in the test on HCT-116 colon were 0.482 µM, 0.532 µM and 0.129 µM, respectively. Besides, the TGI in the test with SNB-19 CNS is above 100 µM; in the test on PC-3 prostate it was above 100 µM; in the test with HT29 colon, 16.8 µM; with SK-MEL-28 melanoma, above 100 µM; in the test on RPMI-8226 leukemia it was 13 µM; with TK-10 renal, 11.6 µM. Besides, the TGI was determined as 16.1 µM in the test on HCT-15 colon, 6.15 µM with NCI/ADR-RES ovarian, 36 µM with CAKI-1 renal and 11.4 µM with HCT-116 colon.

In the case of `CC1(C)CC(=O)C2=C(C1)NC(SSC1=C(C#N)C(c3ccccc3)C3=C(CC(C)(C)CC3=O)N1)=C(C#N)C2c1ccccc1` (stereo unspecified), the GI50 with SNB-19 CNS is 89.2 µg/mL; with PC-3 prostate it was 26.1 µg/mL; in the test with HT29 colon it was 26.8 µg/mL; in the test with SK-MEL-28 melanoma it was 27.7 µg/mL; with RPMI-8226 leukemia, 46.5 µg/mL; with TK-10 renal, 26.9 µg/mL. Besides, the GI50 with HCT-15 colon is 26.8 µg/mL; in the test on NCI/ADR-RES ovarian, 32.9 µg/mL; in the test with CAKI-1 renal, 28.3 µg/mL; in the test on HCT-116 colon, 26.3 µg/mL. Besides, the TGI was above 150 µg/mL with SNB-19 CNS; 47.5 µg/mL in the test with PC-3 prostate; 48.2 µg/mL with HT29 colon; 48.6 µg/mL with SK-MEL-28 melanoma; 134 µg/mL in the test on RPMI-8226 leukemia; 48.1 µg/mL in the test on TK-10 renal. The TGI amounted to 48.8 µg/mL in the test with HCT-15 colon, 65.9 µg/mL in the test with NCI/ADR-RES ovarian, 49.4 µg/mL with CAKI-1 renal and 47 µg/mL in the test on HCT-116 colon.

Consider `O=C(Nc1n[nH]c2nc(-c3ccco3)c(Br)cc12)C1CC1`, for which the GI50 with SNB-19 CNS, in the test with PC-3 prostate, with HT29 colon, in the test on SK-MEL-28 melanoma, with RPMI-8226 leukemia and in the test on TK-10 renal was above 25 µM throughout. In addition, the GI50 with HCT-15 colon, in the test with NCI/ADR-RES ovarian, with CAKI-1 renal and in the test with HCT-116 colon was above 25 µM each time. For the same compound, the TGI in the test with SNB-19 CNS, in the test on PC-3 prostate, in the test with HT29 colon, in the test on SK-MEL-28 melanoma, in the test with RPMI-8226 leukemia and in the test on TK-10 renal was above 25 µM throughout. Further, the TGI with HCT-15 colon, with NCI/ADR-RES ovarian, in the test with CAKI-1 renal and in the test on HCT-116 colon was above 25 µM throughout.

Take `C1=CN2C[n+]3cccc(OCc4ccccc4)c3N=C2C(OCc2ccccc2)=C1`: the TGI in the test with SNB-19 CNS is 27.2 µM; with PC-3 prostate it was above 100 µM; in the test on HT29 colon it was 47.1 µM; in the test with SK-MEL-28 melanoma, 36 µM; in the test on RPMI-8226 leukemia it was 9.26 µM; in the test with TK-10 renal, above 100 µM. Further, the TGI was above 100 µM in the test with HCT-15 colon, above 100 µM in the test with NCI/ADR-RES ovarian, 73.1 µM in the test on CAKI-1 renal and above 100 µM in the test with HCT-116 colon.

Values taken from PubChem BioAssay (NCI).
